Results taken from ChEMBL document CHEMBL1255394, “Antimicrobial susceptibilities of multidrug-resistant Campylobacter jejuni and C. coli strains: in vitro activities of 20 antimicrobial agents” (2010).
≈ marks a conversion by molar mass, not a printed value.

Tests used:
Format in all cases: functional
[1] = test system: Campylobacter jejuni; assay: Antibacterial activity against Campylobacter jejuni assessed as resistant isolates by disk diffusion method
[2] = test system: Campylobacter coli; assay: Antibacterial activity against Campylobacter coli assessed as resistant isolates by disk diffusion method
[3] = test system: Campylobacter sp.; assay: Antibacterial activity against Campylobacter sp. assessed as resistance breakpoint by CLSI method
[4] = test system: Campylobacter sp.; assay: Antibacterial activity against erythromycin resistant Campylobacter sp. by agar plate dilution method
[5] = test system: Campylobacter sp.; assay: Antibacterial activity against erythromycin susceptible Campylobacter sp. by agar plate dilution method
[6] = test system: Campylobacter sp.; assay: Antibacterial activity against erythromycin resistant Campylobacter sp. assessed as resistance breakpoint by CLSI method
[7] = test system: Campylobacter sp.; assay: Antibacterial activity against erythromycin susceptible Campylobacter sp. assessed as resistance breakpoint by CLSI method
[8] = test system: Campylobacter sp.; assay: Antimicrobial activity against erythromycin susceptible Campylobacter sp. assessed as clear zone of inhibition by disk diffusion method
[9] = test system: Campylobacter sp.; assay: Antimicrobial activity against erythromycin resistant Campylobacter sp. assessed as clear zone of inhibition by disk diffusion method
[10] = test system: Campylobacter sp.; assay: Antibacterial activity against Campylobacter sp. assessed as resistance breakpoint by EUCAST method
[11] = test system: Campylobacter sp.; assay: Antibacterial activity against erythromycin resistant Campylobacter sp. after 48 hrs by Etest method
[12] = test system: Campylobacter sp.; assay: Antibacterial activity against erythromycin susceptible Campylobacter sp. after 48 hrs by Etest method

| Molecule | Activity [1] | Activity [2] | Activity [3] | MIC50 [4] | MIC90 [4] | MIC50 [5] | MIC90 [5] | Activity [6] | Activity [7] | inhibition zone (IZ) [8] | inhibition zone (IZ) [9] | Activity [10] | MIC50 [11] | MIC90 [11] | MIC50 [12] | MIC90 [12] |
| --- | --- | --- | --- | --- | --- | --- | --- | --- | --- | --- | --- | --- | --- | --- | --- | --- |
| CC1(C)S[C@@H]2[C@H](NC(=O)[C@H](N)c3ccccc3)C(=O)N2[C@H]1C(=O)O [AMPICILLIN] | 18.2% | 22.2% | 32 µg/mL | 8 mg/L (≈ 22.9 µM) | 128 mg/L (≈ 366 µM) | 0.5 mg/L (≈ 1.43 µM) | 32 mg/L (≈ 91.6 µM) | 36.8% | 16.6% |  |  |  |  |  |  |  |
| CC[C@H]1OC(=O)[C@H](C)[C@@H](O[C@H]2C[C@@](C)(OC)[C@@H](O)[C@H](C)O2)[C@H](C)[C@@H](O[C@@H]2O[C@H](C)C[C@H](N(C)C)[C@H]2O)[C@](C)(O)C[C@@H](C)CN(C)[C@H](C)[C@@H](O)[C@]1(C)O [AZITHROMYCIN] | 5% | 38.9% | 4 µg/mL | > 128 mg/L | > 128 mg/L | 0.25 mg/L (≈ 0.334 µM) | 0.5 mg/L (≈ 0.668 µM) | 89.5% | 0.5% |  |  |  |  |  |  |  |
| O=C(N[C@H](CO)[C@H](O)c1ccc([N+](=O)[O-])cc1)C(Cl)Cl [CHLORAMPHENICOL] | 0.5% | 0% | 32 µg/mL | 4 mg/L (≈ 12.4 µM) | 16 mg/L (≈ 49.5 µM) | 0.125 mg/L (≈ 0.387 µM) | 8 mg/L (≈ 24.8 µM) | 0% | 0.5% |  |  |  |  |  |  |  |
| O=C(O)c1cn(C2CC2)c2cc(N3CCNCC3)c(F)cc2c1=O [CIPROFLOXACIN] | 42.4% |  |  | 16 mg/L (≈ 48.3 µM) | > 32 mg/L | 0.5 mg/L (≈ 1.51 µM) | 1 mg/L (≈ 3.02 µM) |  |  |  |  |  |  |  |  |  |
| CC[C@H]1OC(=O)[C@H](C)[C@@H](O[C@H]2C[C@@](C)(OC)[C@@H](O)[C@H](C)O2)[C@H](C)[C@@H](O[C@@H]2O[C@H](C)C[C@H](N(C)C)[C@H]2O)[C@](C)(OC)C[C@@H](C)C(=O)[C@H](C)[C@@H](O)[C@]1(C)O [CLARITHROMYCIN] |  |  |  | > 128 mg/L | > 128 mg/L | 0.25 mg/L (≈ 0.334 µM) | 128 mg/L (≈ 171 µM) |  |  |  |  |  |  |  |  |  |
| CCC[C@@H]1C[C@@H](C(=O)N[C@@H]([C@H]2O[C@H](SC)[C@H](O)[C@@H](O)[C@H]2O)[C@H](C)Cl)N(C)C1 [CLINDAMYCIN] | 5% | 50% | 8 µg/mL | 64 mg/L (≈ 151 µM) | 64 mg/L (≈ 151 µM) | 2 mg/L (≈ 4.71 µM) | 4 mg/L (≈ 9.41 µM) | 89.5% | 1.4% |  |  |  |  |  |  |  |
| CC[C@H]1OC(=O)[C@H](C)[C@@H](O[C@H]2C[C@@](C)(OC)[C@@H](O)[C@H](C)O2)[C@H](C)[C@@H](O[C@@H]2O[C@H](C)C[C@H](N(C)C)[C@H]2O)[C@](C)(O)C[C@@H](C)C(=O)[C@H](C)[C@@H](O)[C@]1(C)O [ERYTHROMYCIN] | 4.5% | 50% | 16 µg/mL | > 128 mg/L | > 128 mg/L | 2 mg/L (≈ 2.73 µM) | 4 mg/L (≈ 5.45 µM) | 100% | 0% | >23 mm | <=23 mm |  |  |  |  |  |
| C[C@@H](O)[C@H]1C(=O)N2C(C(=O)O)=C(SCCNC=N)C[C@H]12 [IMIPENEM ANHYDROUS] | 0% | 0% | 16 µg/mL | 0.25 mg/L (≈ 0.835 µM) | 0.5 mg/L (≈ 1.67 µM) | 0.016 mg/L (≈ 0.0534 µM) | 0.25 mg/L (≈ 0.835 µM) | 0% | 0% |  |  |  |  |  |  |  |
| C[C@H]1COc2c(N3CCN(C)CC3)c(F)cc3c(=O)c(C(=O)O)cn1c23.C[C@H]1COc2c(N3CCN(C)CC3)c(F)cc3c(=O)c(C(=O)O)cn1c23.O [LEVOFLOXACIN] | 34.5% | 72.2% | 8 µg/mL | 8 mg/L |  | 1 mg/L | > 64 mg/L | 78.9% | 33.6% |  |  |  |  |  |  |  |
| C[C@@H](O)[C@H]1C(=O)N2C(C(=O)O)=C(S[C@@H]3CN[C@H](C(=O)N(C)C)C3)[C@H](C)[C@H]12 [MEROPENEM] | 0% | 0% | 16 µg/mL | ≤ 0.03 mg/L | 0.25 mg/L (≈ 0.652 µM) | 4 mg/L (≈ 10.4 µM) | 64 mg/L (≈ 167 µM) | 0% | 0% |  |  |  |  |  |  |  |
| COc1c(N2C[C@@H]3CCCN[C@@H]3C2)c(F)cc2c(=O)c(C(=O)O)cn(C3CC3)c12 [MOXIFLOXACIN] |  |  |  | 2 mg/L (≈ 4.98 µM) | 16 mg/L (≈ 39.9 µM) | ≤ 0.03 mg/L | 0.125 mg/L (≈ 0.311 µM) |  |  |  |  |  |  |  |  |  |
| CCn1cc(C(=O)O)c(=O)c2ccc(C)nc21 [NALIDIXIC ACID] | 41.4% | 83.3% | 32 µg/mL | 128 mg/L (≈ 551 µM) | 128 mg/L (≈ 551 µM) | 2 mg/L (≈ 8.61 µM) | 8 mg/L (≈ 34.4 µM) | 94.7% | 40.1% |  |  |  |  |  |  |  |
| CCn1cc(C(=O)O)c(=O)c2cc(F)c(N3CCNCC3)cc21 [NORFLOXACIN] | 40.9% | 83.3% | 16 µg/mL | 64 mg/L (≈ 200 µM) | > 64 mg/L | 8 mg/L (≈ 25.1 µM) | 256 mg/L (≈ 802 µM) | 94.7% | 39.6% |  |  |  |  |  |  |  |
| CC1COc2c(N3CCN(C)CC3)c(F)cc3c(=O)c(C(=O)O)cn1c23 (centres undefined) [OFLOXACIN] | 40.9% | 83.3% | 8 µg/mL | 16 mg/L (≈ 44.3 µM) | 64 mg/L (≈ 177 µM) | 0.25 mg/L (≈ 0.692 µM) | 32 mg/L (≈ 88.6 µM) | 84.2% | 40.6% |  |  |  |  |  |  |  |
| N[C@@H]1CN(c2c(F)cc3c(=O)c(C(=O)O)cn([C@@H]4C[C@@H]4F)c3c2Cl)CC12CC2 [SITAFLOXACIN ANHYDROUS] |  |  |  | 0.125 mg/L (≈ 0.305 µM) | 0.5 mg/L (≈ 1.22 µM) | 0.5 mg/L (≈ 1.22 µM) | 1 mg/L (≈ 2.44 µM) |  |  |  |  |  |  |  |  |  |
| CC[C@H]1OC(=O)[C@H](C)C(=O)[C@H](C)[C@@H](O[C@@H]2O[C@H](C)C[C@H](N(C)C)[C@H]2O)[C@](C)(OC)C[C@@H](C)C(=O)[C@H](C)[C@H]2N(CCCCn3cnc(-c4cccnc4)c3)C(=O)O[C@]12C [TELITHROMYCIN] |  |  |  | 32 mg/L (≈ 39.4 µM) | > 128 mg/L | 0.064 mg/L (≈ 0.0788 µM) | 0.25 mg/L (≈ 0.308 µM) |  |  |  |  |  |  |  |  |  |
| CN(C)[C@@H]1C(O)=C(C(N)=O)C(=O)[C@@]2(O)C(O)=C3C(=O)c4c(O)cccc4[C@@](C)(O)[C@H]3C[C@@H]12 [TETRACYCLINE] | 28.1% | 66.7% | 16 µg/mL | 128 mg/L (≈ 288 µM) | > 128 mg/L | 2 mg/L (≈ 4.5 µM) | 8 mg/L (≈ 18 µM) | 73.7% | 26.9% |  |  |  |  |  |  |  |
| CN(C)c1cc(NC(=O)CNC(C)(C)C)c(O)c2c1C[C@H]1C[C@H]3[C@H](N(C)C)C(O)=C(C(N)=O)C(=O)[C@@]3(O)C(O)=C1C2=O [TIGECYCLINE] | 0% | 0% | 0.5 µg/mL |  |  |  |  | 0% | 0% |  |  | >0.5 µg/mL | 0.008 mg/L (≈ 0.0137 µM) | 0.023 mg/L (≈ 0.0393 µM) | 0.008 mg/L (≈ 0.0137 µM) | 0.032 mg/L (≈ 0.0546 µM) |
| GENTAMICIN | 0.9% | 0% | 16 µg/mL | 0.5 mg/L | 0.5 mg/L | 4 mg/L | 64 mg/L | 0% | 0.9% |  |  |  |  |  |  |  |
